Results: PubChem BioAssay AID588652 (The Scripps Research Institute Molecular Screening Center, 2011)

Target: Krueppel-like factor 5 (Homo sapiens) (UniProt Q13887)
Test: change in KLF5 protein levels, late-stage follow-up, counter-screen for KLF5 inhibitor project, western blot, chemiluminescence, HCT116 colorectal cells (AID 588652)
Settings: HCT116 KLF5 protein level, 24 h, at 10 µM, stronger effect = higher value

Chain of Krueppel-like factor 5 (Homo sapiens) (Q13887 whole entry, looked up): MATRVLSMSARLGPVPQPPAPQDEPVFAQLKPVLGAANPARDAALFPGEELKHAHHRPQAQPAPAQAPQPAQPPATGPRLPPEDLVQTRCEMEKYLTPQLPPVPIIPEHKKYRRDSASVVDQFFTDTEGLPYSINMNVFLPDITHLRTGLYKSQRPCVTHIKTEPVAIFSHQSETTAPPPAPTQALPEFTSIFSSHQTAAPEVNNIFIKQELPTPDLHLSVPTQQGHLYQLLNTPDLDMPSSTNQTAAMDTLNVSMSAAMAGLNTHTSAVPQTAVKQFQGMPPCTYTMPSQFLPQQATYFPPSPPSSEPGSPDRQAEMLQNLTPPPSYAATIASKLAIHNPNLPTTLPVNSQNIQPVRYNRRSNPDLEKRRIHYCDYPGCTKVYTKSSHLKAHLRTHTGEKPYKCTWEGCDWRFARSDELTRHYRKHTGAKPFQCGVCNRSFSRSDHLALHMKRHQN

inhibition: 62.6%
SMILES: CN(C(=O)COC(=O)/C=C/c1cccc([N+](=O)[O-])c1)C1CCS(=O)(=O)C1 (stereo unspecified)
